{
  "source": "patent US5304113A",
  "about": "“Method of eradicating infectious biological contaminants” (The MCW Research Foundation, Inc., priority 1990, dated 1994)",
  "key": {"[1]": {"settings": "comparison dye; cited from earlier work"}, "[2]": {"tested_on": "Friend erythroleukemia virus complex", "assay": "Friend virus titer / inactivation by MC 540-mediated photosensitization", "format": "cell-based", "procedure": "The ability of MC 540 to react with enveloped (i.e. lipid-containing) viruses was tested with the Friend erythroleukemia virus complex, the human T cell leukemia virus, HTLV-I and Herpes simplex 1. Friend virus was obtained from cell-free supernatants of cultured erythroleukemia cells or as a cell-free extract from infected animals. Simultaneous exposure to MC 540 (15 ug/ml) and light (40 J/cm^2) reduced the virus titer by ≥4 logs regardless of the origin of the virus preparation."}, "[3]": {"tested_on": "virus-infected spleen cells, bone marrow cells, and cultured Friend erythroleukemia cells", "assay": "inactivation of Friend virus-infected / transformed cells by photosensitization", "format": "cell-based"}, "[4]": {"tested_on": "herpes simplex virus type 1 (HSV-1)", "assay": "limiting dilution plaque forming assay on Vero cells (Herpes simplex 1 inactivation)", "format": "cell-based, human", "description": "(§1) The amount of virus that could be sedimented by centrifugation was reduced 5-fold after treatment with MC 540 and light. The remaining 80% of the virus were probably lysed. The small fraction that was sedimented was visibly stained by MC 540. It is conceivable that the sedimented virus fraction, although not lysed, had sustained enough photodynamic damages to make it noninfectious. For example, when the virus is Herpes simplex 1 the order of magnitude reduction is as high as 45 times.\n(§2) Experiments with human herpes simplex virus type 1 (HSV-1), and human T-cell leukemia virus type I (HTLV-I) produced similar results. […] A limiting dilution plaque forming assay on Vero cells indicated a ≥5 log reduction (limit of detection) of the virus titer after only 10 min. of illumination. The standard illumination protocol calls for 90 min. of illumination. It is thus conceivable that the titer can be reduced by ≥45 log. Infectivity assays for HTLV-I have, unfortunately, not yet been developed. We therefore used reverse transcriptase activity as an indicator of virus destruction. Photosensitized and untreated aliquots of the same virus suspension were pelleted on a sucrose cushion. The pellet of the treated aliquot was about 5 times smaller and visibly red. Its reverse transcriptase content was reduced by more than 80% (Table 1). The balance of the enzyme activity was recovered in the supernatant. More than 80% of the original virus mass was apparently damaged so extensively (virtually \"dissolved\") that it was no longer pelletable by a two hour spin at 100,000×g. If the photosensitization of enveloped viruses bears any resemblance to the photosensitization of cells, it is reasonable to speculate that the pelletable material was also photodamaged and perhaps no longer infective."}, "[5]": {"tested_on": "human T-cell leukemia virus type I (HTLV-I) reverse transcriptase", "assay": "HTLV-I inactivation: pelletable virus and reverse transcriptase activity", "format": "biochemical", "description": "as §1, §2"}, "HTLV-I infected cells": {"tested_on": "HTLV-I infected cells", "assay": "inactivation of HTLV-I infected cells", "format": "cell-based", "settings": "MC 540-mediated photosensitization"}, "[6]": {"assay": "Acute systemic toxicity in mice (intravenous)", "format": "in vivo, mouse (BAF1)", "procedure": "The acute systemic toxicity of MC 540 was determined by injecting groups of 10 BAF1 mice intravenously with graded doses of MC 540. Survival data were plotted on a log probit scale and fitted with a least square regression line to determine LD10 and LD50 (Table 2)."}, "P. yoelii YM": {"tested_on": "P. yoelii YM", "assay": "survival of mice injected with treated P. yoelii-infected blood", "format": "in vivo", "procedure": "(§3) Using the rodent malaria species, P. yoelii YM, and P. berghei berghei as model systems, the survival of mice i.v. injected with MC 540-treated and non-treated malarious blood was monitored in vivo. […] All mice receiving untreated malarious blood died rapidly. In a subsequent experiment, serial dilutions of treated (30 minutes of dye/light) or control malarious blood (30% parasitemia) were injected into recipient mice. One hundred percent of the mice receiving 10^4 treated cells survived compared to 0% of the corresponding control group. […] It is conceivable that MC 540 treatment of infected blood enhanced the immune response of the recipient mice."}, "P. berghei berghei": {"tested_on": "P. berghei berghei", "assay": "survival of mice injected with treated P. berghei-infected blood", "format": "in vivo", "procedure": "as §3\nIn two experiments, all mice receiving P. berghei-infected blood (30% parasitemia), treated for 15-45 minutes with light and MC 540, died as did their control counterparts. However, 10% of the group receiving infected blood treated for 60 minutes with light and dye survived for the duration of the experiment (90 days)."}, "[7]": {"tested_on": "normal pluripotent hematopoietic stem cells", "assay": "sparing of normal pluripotent hematopoietic stem cells (rescue of lethally irradiated syngeneic hosts)", "format": "in vivo, mouse", "settings": "photosensitization treatment", "procedure": "(§4) When cultured F4-6 erythroleukemia cells, spleen or marrow cells from diseased animals, cell-free extracts of cultured cells, spleen cells, or marrow cells, or cell-free supernatants of F-6 cultures were injected into healthy B6D2F1 mice, the spleen weights increased from 70 mg to about 2 g within two weeks. The animals became polycythemic and, eventually, died. […] Normal pluripotent hematopoietic stem cells (as determined by the ability of photosensitized marrow cells to rescue lethally irradiated syngeneic hosts) were spared by the photosensitization treatment."}, "mature blood cells": {"tested_on": "mature blood cells", "assay": "toxicity of photosensitization to mature blood cells", "format": "cell-based, mouse", "settings": "photosensitization treatment", "description": "4) The same treatment protocol was much less toxic to mature blood cells and normal pluripotent hematopoietic stem cells in the mouse.\n(§5) The simultaneous exposure to MC 540 and visible light also appears to kill protozoan-infected red blood cells very rapidly, but normal pluripotent hematopoietic stem cells and mature blood cells very slowly. This differential sensitivity to MC 540-mediated photolysis may be useful in purging blood and red blood cells of cell-free protozoa and protozoan-infected cells thus making the blood supply safer for use."}, "[8]": {"tested_on": "protozoan-infected red blood cells", "assay": "killing of protozoan-infected red blood cells", "format": "cell-based", "settings": "simultaneous exposure to MC 540 and visible light", "description": "as §5"}, "Friend virus": {"tested_on": "Friend virus", "assay": "Friend virus disease in mice injected with photosensitized preparations", "format": "in vivo, B6D2F1 mice", "procedure": "as §4"}, "[9]": {"assay": "illumination time reduction", "settings": "equimolar concentrations", "description": "An analog of MC 540 which we have labeled MC 540A (see structural formula below) reduces illumination times about 6-fold when used in equimolar concentrations. [drawing 3]\nMerocyanine-mediated photolysis of tumor cells, viruses and protozoa appear to be primarily mediated by singlet oxygen. An additional 2-fold reduction in illumination time can therefore be achieved by performing the photosensitization step in the presence of deuterium oxide (D2 O)."}, "[10]": {"settings": "MC 540-mediated photosensitization"}, "[11]": {"settings": "preparations photosensitized and exposed to light prior to injection"}},
  "note": "“Also recorded” adds a separate entry of the source.",
  "data": [
    {"compound": "O=C1OC2(c3ccc(O)cc3Oc3cc(O)ccc32)c2ccccc21", "note": "[fluorescein]", "values": [
      {"measurement": "LD50 (mouse), for comparison", "setting": "[1]", "value": 300, "unit": "mg/kg"}
    ]},
    {"compound": "CCCCN1C(=O)C(=CC=CC=C2Oc3ccccc3N2CCCS(=O)(=O)O)C(=O)N(CCCC)C1=S", "note": "[MC 540]", "values": [
      {"measurement": "inactivation of Friend virus suspensions (in words)", "setting": "[2]; [10]", "value": "rapidly inactivated"},
      {"measurement": "log reduction at 15 µg/mL", "setting": "[2]; light or radiation study, read-out: virus titer reduction (Friend virus)", "value": "≥ 4"},
      {"measurement": "inactivation of Friend virus-transformed / infected cells (in words)", "setting": "[3]; [10]", "value": "rapidly inactivated"},
      {"measurement": "rate of inactivation of virus-infected cells versus cell-free virus", "setting": "[3]; simultaneous MC 540 (15 ug/ml) and light (40 J/cm^2)", "value": "inactivated at about the same rate as cell-free virus preparations"},
      {"measurement": "virus titer reduction (HSV-1)", "setting": "[4]; 10 min. of illumination, limit of detection", "value": "≥ 5", "unit": "log"},
      {"measurement": "virus titer reduction (HSV-1), conceivable for standard protocol", "setting": "[4]; 90 min. of illumination, extrapolated", "value": "≥ 45", "unit": "log"},
      {"measurement": "inactivation of Herpes simplex (in words)", "setting": "[4]; [10]", "value": "rapidly inactivated; also recorded: extremely susceptible"},
      {"measurement": "HTLV-I, Reverse Transcriptase activity", "setting": "[5]; MC 540, light 90 min", "value": "37,848 cpm"},
      {"measurement": "HTLV-I, Reverse Transcriptase activity", "setting": "[5]; MC 540, no light", "value": "208,548 cpm"},
      {"measurement": "inactivation of HTLV-I (in words)", "setting": "[5]; [10]", "value": "rapidly inactivated; also recorded: susceptible to MC 540-mediated photosensitization"},
      {"measurement": "reduction of amount of virus sedimented by centrifugation (HTLV-I)", "setting": "[5]; MC 540 and light", "value": 5, "unit": "fold"},
      {"measurement": "virus probably lysed (HTLV-I)", "setting": "[5]; MC 540 and light", "value": 80, "unit": "%"},
      {"measurement": "reduction of reverse transcriptase content of pellet (HTLV-I)", "setting": "[5]; photosensitized vs untreated aliquot", "value": "more than 80%"},
      {"measurement": "pellet size reduction of treated aliquot (HTLV-I)", "setting": "[5]; photosensitized vs untreated aliquot, sucrose cushion", "value": "about 5 times smaller"},
      {"measurement": "original virus mass no longer pelletable (HTLV-I)", "setting": "[5]; two hour spin at 100,000×g", "value": "more than 80%"},
      {"measurement": "inactivation of HTLV-I infected cells (in words)", "setting": "HTLV-I infected cells", "value": "rapidly inactivated"},
      {"measurement": "LD50", "setting": "[6]; in vivo, mouse, intravenous, log probit fit", "value": 84, "unit": "mg/kg"},
      {"measurement": "LD10 (mouse)", "setting": "[6]; intravenous, log probit fit", "value": 55, "unit": "mg/kg"},
      {"measurement": "acute systemic toxicity (in words)", "setting": "[6]; mouse, in vivo", "value": "very low"},
      {"measurement": "acute toxicity compared with fluorescent dyes used for angiography of the retina", "setting": "[6]; mouse, in vivo, iv", "value": "not more toxic than the fluorescent dyes that are commonly used for the angiography of the retina"},
      {"measurement": "selectivity ratio", "setting": "[6]; mouse, in vivo, iv, read-out: LD10 relative to amount injected with mouse bone marrow graft", "value": "> 100000"},
      {"measurement": "probable cause of death after high doses (necropsy)", "setting": "[6]; mouse, intravenous, high doses", "value": "formation of large emboli of precipitated dye in major blood vessel"},
      {"measurement": "amount injected with photosensitized marrow graft", "setting": "[6]; mouse, for comparison with LD10", "value": 0.0004, "unit": "mg/kg"},
      {"measurement": "survival of mice receiving 10^4 treated cells", "setting": "P. yoelii YM; 30 minutes dye/light, 30% parasitemia, control 0%", "value": "One hundred"},
      {"measurement": "survival of recipient population (P. yoelii)", "setting": "P. yoelii YM; 60 minutes dye/light, 40%-70% parasitemia", "value": "70%-100"},
      {"measurement": "protection of recipient mice (P. yoelii)", "setting": "P. yoelii YM; 90 minutes dye and light, 40%-70% parasitemia", "value": "total protection"},
      {"measurement": "protection despite exceedingly high parasitemias (P. yoelii)", "setting": "P. yoelii YM; all stages of development", "value": "protection by MC 540 treatment was still obtained"},
      {"measurement": "protection of recipient mice (P. yoelii), shorter illumination", "setting": "P. yoelii YM; shorter than 60 minutes illumination", "value": "partial protection"},
      {"measurement": "course of disease in surviving mice", "setting": "P. yoelii YM; some of the surviving mice, both treatments", "value": "initially showed severe symptoms of malaria (e.g. splenomegaly, anemia) but later recovered"},
      {"measurement": "outcome of mice receiving treated P. berghei-infected blood", "setting": "P. berghei berghei; 15-45 minutes light and MC 540, 30% parasitemia, two experiments", "value": "died"},
      {"measurement": "survival of mice receiving treated P. berghei-infected blood", "setting": "P. berghei berghei; 60 minutes light and dye, 90 days", "value": 10, "unit": "%"},
      {"measurement": "effect on normal pluripotent hematopoietic stem cells (in words)", "setting": "[7]", "value": "very slowly"},
      {"measurement": "effect on mature blood cells (in words)", "setting": "mature blood cells", "value": "very slowly"},
      {"measurement": "killing of protozoan-infected red blood cells (in words)", "setting": "[8]", "value": "very rapidly"},
      {"measurement": "inactivation of free and intracellular Friend virus and Friend virus-infected cells", "setting": "Friend virus; MC 540-mediated photolysis", "value": "inactivates free Friend virus, intracellular Friend virus, and Friend virus-infected cells"},
      {"measurement": "effect of virus preparations exposed to dye or light alone", "setting": "Friend virus; dye alone or light alone", "value": "caused splenomegaly, polycythemia,and death"},
      {"measurement": "hematocrits", "setting": "Friend virus; [11]", "value": "remained normal"},
      {"measurement": "spleen weights", "setting": "Friend virus; [11]", "value": "remained normal"},
      {"measurement": "survival", "setting": "Friend virus; [11]", "value": "the animals survived"}
    ]},
    {"compound": "CCCCN1C(=O)C(=CC=CC=C2Oc3c(ccc4ccccc34)N2CCCS(=O)(=O)O)C(=O)N(CCCC)C1=S", "note": "[MC 540A]", "values": [
      {"measurement": "reduction of illumination time versus MC 540", "setting": "[9]", "value": "about 6 fold"}
    ]}
  ]
}
